# Literature values, collected in patent US20230149410A1, “TREATMENT OF CONDITIONS ASSOCIATED WITH THYROID HORMONE” (priority 2020, published 2023).
# Where two headings read alike, the source gives them in different places.
# Details: profound hypothyroidism after birth, treated immediately after birth
smiles,measurement,setting,value
N[C@@H](Cc1cc(I)c(Oc2cc(I)c(O)c(I)c2)c(I)c1)C(=O)O [levothyroxine],thyroid status by thyroid hormone testing in plasma or serum (blood),,rendered chemically euthyroid
same,thyroid status by thyroid hormone testing in plasma or serum (blood),listed as T4,became chemically euthyroid
